Measurements as given in PubChem BioAssay (NCI).
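A five-concentration, 48-hour dose response in 96-well plates underlies each endpoint, interpolated linearly between surrounding concentrations. GI50 = concentration required for 50% inhibition of growth. TGI denotes the concentration required for complete inhibition of growth.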

Tests used:
Experiment in all cases: NCI anticancer screen, dose series, 48 h
SK-OV-3 ovarian = tested on: SK-OV-3 ovarian
A498 renal = tested on: A498 renal
MDA-MB-435 = tested on: MDA-MB-435
UO-31 renal = tested on: UO-31 renal
HOP-62 NSCLC = tested on: HOP-62 NSCLC
SNB-19 CNS = tested on: SNB-19 CNS
OVCAR-3 ovarian = tested on: OVCAR-3 ovarian
SNB-75 CNS = tested on: SNB-75 CNS
NCI-H23 lung = tested on: NCI-H23 lung
COLO 205 colon = tested on: COLO 205 colon

Row | SMILES | TGI (SK-OV-3 ovarian) | TGI (A498 renal) | GI50 (MDA-MB-435) | TGI (MDA-MB-435) | TGI (UO-31 renal) | TGI (HOP-62 NSCLC) | TGI (SNB-19 CNS) | TGI (OVCAR-3 ovarian) | TGI (SNB-75 CNS) | TGI (NCI-H23 lung) | TGI (COLO 205 colon) | GI50 (SK-OV-3 ovarian) | GI50 (A498 renal) | GI50 (UO-31 renal) | GI50 (HOP-62 NSCLC) | GI50 (SNB-19 CNS) | GI50 (OVCAR-3 ovarian) | GI50 (SNB-75 CNS) | GI50 (NCI-H23 lung) | GI50 (COLO 205 colon)
1 | CN(C)c1ccc(/C=C(/NC(=O)c2ccccc2)c2nc3ccc(Cl)cc3[nH]2)cc1 | > 100 µM | > 100 µM | 29.8 µM | > 100 µM | > 100 µM | > 100 µM | > 100 µM | > 9.31 µM | > 91.3 µM | > 100 µM | 66.7 µM |  |  |  |  |  |  |  |  | 
2 | COc1ccccc1-n1c(-c2cc(O)ccc2C)cn2c3c(=O)[nH]c(=O)n(C)c3nc12 | > 100 µM | > 100 µM | > 100 µM | > 100 µM | > 100 µM | > 100 µM | > 100 µM | > 100 µM | 1.12 µM | > 100 µM | 48 µM | 2.78 µM | 25 µM | 9.33 µM | 7.74 µM | > 100 µM | 4.28 µM | 0.129 µM | 60.9 µM | 18.2 µM
3 | COc1cc(NCCCCN=C(N)NC(N)=NC(C)C)c2ncccc2c1 | > 100 µM | > 100 µM | 12.9 µM | 26.7 µM | > 100 µM | 28.6 µM | 26.3 µM | 0.897 µM | 17.3 µM | 10.1 µM | 4.46 µM | 34.4 µM | 28.5 µM | 99 µM | 13.7 µM | 9.86 µM | 0.311 µM | 4.21 µM | 0.984 µM | 0.987 µM
4 | CC(C)(C)[Si](C)(C)OCC1OC(n2cnc3c(NC(=O)c4ccccc4)ncnc32)CC1O (stereo unspecified) | 89.1 µM | 60.5 µM |  | 44.6 µM | 2.96 µM | 35.5 µM | 74.3 µM | 81.1 µM | 60.3 µM | > 100 µM | 33.1 µM |  |  |  |  |  |  |  |  | 
5 | CCCCCCCC/C=C/CCCCCCCCC1=NCCN1CCO | 33.6 µM | 15.5 µM | 1.87 µM | 3.91 µM | 3.75 µM | 29.4 µM | 33.2 µM | 25.7 µM | 15.3 µM | 28.3 µM | 13.9 µM | 16.1 µM | 2.34 µM | 1.76 µM | 5.29 µM | 7.21 µM | 11.5 µM | 2.8 µM | 10.9 µM | 3.76 µM
6 | CC(=O)OC1CC(n2cc(F)c(=O)[nH]c2=O)OC1CO (stereo unspecified) | > 100 µM | 15.5 µM |  | > 100 µM | > 92.6 µM | 10.1 µM | > 100 µM | > 100 µM | > 100 µM | 77.1 µM | > 100 µM |  |  |  |  |  |  |  |  | 
7 | CCCCCC(O)C1C(=O)OC(C)C(O)/C=C/C=C/C=C/C=C\C=C(\C)C(O)CC(O)CC(O)CC(O)CC(O)CC(O)CC1O (stereo unspecified) | > 100 µM | > 100 µM | > 100 µM | > 100 µM | > 100 µM | > 100 µM | > 100 µM | > 100 µM | > 100 µM | > 100 µM | > 100 µM | > 100 µM | > 100 µM | > 100 µM | > 100 µM | > 100 µM | > 100 µM | > 100 µM | > 100 µM | > 100 µM
8 | C=C(C)[C@@H]1CC[C@]2(C)[C@H](C(=O)C=C3[C@@H]4C[C@](C)(C(=O)N5CCN(C)CC5)CC[C@]4(C)CC[C@]32C)[C@@]1(C)CCC#N | 12.5 µM | 14.9 µM | 7.33 µM | 14.2 µM | 11.3 µM | 13.3 µM | 14.9 µM | 13.2 µM | 15.8 µM | 14.3 µM | 13.4 µM | 6.03 µM | 7.77 µM | 5.37 µM | 6.33 µM | 7.87 µM | 6.33 µM | 7.52 µM | 6.97 µM | 5.78 µM
9 | Cc1nc2sccn2c(=O)c1CCN1CCC(=C(c2ccc(F)cc2)c2ccc(F)cc2)CC1 | 30.7 µM | 29.4 µM | 14.2 µM | 28.2 µM | 18.8 µM | 33.4 µM | 30.3 µM | 27.2 µM | 28.7 µM | 29 µM | 24.1 µM | 16.3 µM | 15.3 µM | 4.06 µM | 17.9 µM | 16 µM | 12.8 µM | 14.5 µM | 13.2 µM | 7.69 µM
10 | CS(=O)CCCCCN=C=S (stereo unspecified) | 27.3 µM | 23.5 µM | 3.57 µM | 15.8 µM | 17.2 µM | 29.4 µM | 32.1 µM | 10.1 µM | 16.5 µM | 24.5 µM | 12 µM | 13.7 µM | 10.4 µM | 4 µM | 12.5 µM | 16.1 µM | 3.07 µM | 3.01 µM | 4.21 µM | 3.21 µM
